Results: PubChem BioAssay (NCI)
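Each compound was tested at five concentrations against cells in 96-well plates for 48 hours. GI50 marks 50% less growth. Definition used: TGI = concentration required for complete inhibition of growth.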

How the values were obtained:
Experiment in all cases: inhibition of tumour cell growth, NCI panel, 48 h
786-0 renal = tested on: 786-0 renal
A498 renal = tested on: A498 renal
A549 NSCLC = tested on: A549 NSCLC
ACHN renal = tested on: ACHN renal
BT-549 breast = tested on: BT-549 breast
CAKI-1 renal = tested on: CAKI-1 renal
CCRF-CEM leukemia = tested on: CCRF-CEM leukemia
COLO 205 colon = tested on: COLO 205 colon
DU-145 prostate = tested on: DU-145 prostate
EKVX NSCLC = tested on: EKVX NSCLC
HCC-2998 colon = tested on: HCC-2998 colon
HCT-116 colon = tested on: HCT-116 colon
HCT-15 colon = tested on: HCT-15 colon
HL-60(TB) leukemia = tested on: HL-60(TB) leukemia
HOP-62 NSCLC = tested on: HOP-62 NSCLC
HOP-92 NSCLC = tested on: HOP-92 NSCLC
HS 578T breast = tested on: HS 578T breast
HT29 colon = tested on: HT29 colon
IGROV1 ovarian = tested on: IGROV1 ovarian
K-562 leukemia = tested on: K-562 leukemia
KM12 colon = tested on: KM12 colon
LOX IMVI melanoma = tested on: LOX IMVI melanoma
M14 melanoma = tested on: M14 melanoma
MALME-3M melanoma = tested on: MALME-3M melanoma
MCF7 breast = tested on: MCF7 breast
MDA-MB-231 breast = tested on: MDA-MB-231 breast
MDA-MB-435 = tested on: MDA-MB-435
MOLT-4 leukemia = tested on: MOLT-4 leukemia
NCI-H226 lung = tested on: NCI-H226 lung
NCI-H23 lung = tested on: NCI-H23 lung
NCI-H460 lung = tested on: NCI-H460 lung
NCI-H522 lung = tested on: NCI-H522 lung
NCI/ADR-RES ovarian = tested on: NCI/ADR-RES ovarian
OVCAR-3 ovarian = tested on: OVCAR-3 ovarian
OVCAR-4 ovarian = tested on: OVCAR-4 ovarian
OVCAR-5 ovarian = tested on: OVCAR-5 ovarian
OVCAR-8 ovarian = tested on: OVCAR-8 ovarian
PC-3 prostate = tested on: PC-3 prostate
RPMI-8226 leukemia = tested on: RPMI-8226 leukemia
RXF 393 renal = tested on: RXF 393 renal
SF-268 CNS = tested on: SF-268 CNS
SF-295 CNS = tested on: SF-295 CNS
SF-539 CNS = tested on: SF-539 CNS
SK-MEL-2 melanoma = tested on: SK-MEL-2 melanoma
SK-MEL-28 melanoma = tested on: SK-MEL-28 melanoma
SK-MEL-5 melanoma = tested on: SK-MEL-5 melanoma
SK-OV-3 ovarian = tested on: SK-OV-3 ovarian
SN12C renal = tested on: SN12C renal
SNB-19 CNS = tested on: SNB-19 CNS
SNB-75 CNS = tested on: SNB-75 CNS
SW-620 colon = tested on: SW-620 colon
T-47D breast = tested on: T-47D breast
TK-10 renal = tested on: TK-10 renal
U251 CNS = tested on: U251 CNS
UACC-257 melanoma = tested on: UACC-257 melanoma
UACC-62 melanoma = tested on: UACC-62 melanoma
UO-31 renal = tested on: UO-31 renal

COC1C(CO)OC(n2c3ccccc3c3c4c(c5c6ccccc6[nH]c5c32)C(=O)NC4=O)C(O)C1O (centres undefined)
GI50 (786-0 renal): 46.7 nM
TGI (786-0 renal): 1120 nM
GI50 (A498 renal): 16 nM
TGI (A498 renal): 99.8 nM
GI50 (A549 NSCLC): 621 nM
GI50 (ACHN renal): < 19.1 nM
TGI (ACHN renal): 92.8 nM
GI50 (BT-549 breast): 120 nM
TGI (BT-549 breast): 1850 nM
GI50 (CAKI-1 renal): < 18.4 nM
TGI (CAKI-1 renal): 93.7 nM
GI50 (CCRF-CEM leukemia): < 10 nM
TGI (CCRF-CEM leukemia): 2420 nM
GI50 (COLO 205 colon): < 36 nM
TGI (COLO 205 colon): 2140 nM
GI50 (DU-145 prostate): 43.9 nM
TGI (DU-145 prostate): 572 nM
GI50 (EKVX NSCLC): 326 nM
TGI (EKVX NSCLC): 2340 nM
GI50 (HCC-2998 colon): 127 nM
TGI (HCC-2998 colon): 1500 nM
GI50 (HCT-116 colon): 16 nM
TGI (HCT-116 colon): 146 nM
GI50 (HCT-15 colon): 524 nM
TGI (HCT-15 colon): > 31.9 µM
GI50 (HL-60(TB) leukemia): 11.4 nM
TGI (HL-60(TB) leukemia): 34 nM
GI50 (HOP-62 NSCLC): 51.4 nM
TGI (HOP-62 NSCLC): 1200 nM
GI50 (HOP-92 NSCLC): 79.2 nM
TGI (HOP-92 NSCLC): 1220 nM
GI50 (HS 578T breast): 180 nM
TGI (HS 578T breast): 757 nM
GI50 (HT29 colon): 230 nM
TGI (HT29 colon): > 37.7 µM
GI50 (IGROV1 ovarian): 84.4 nM
TGI (IGROV1 ovarian): 3.49 µM
GI50 (K-562 leukemia): < 14.5 nM
GI50 (KM12 colon): 17.6 nM
TGI (KM12 colon): 550 nM
GI50 (LOX IMVI melanoma): < 10 nM
TGI (LOX IMVI melanoma): 35.2 nM
GI50 (M14 melanoma): 44.1 nM
TGI (M14 melanoma): 347 nM
GI50 (MALME-3M melanoma): < 18 nM
GI50 (MCF7 breast): 33.6 nM
TGI (MCF7 breast): 2070 nM
GI50 (MDA-MB-231 breast): 59.5 nM
TGI (MDA-MB-231 breast): 343 nM
GI50 (MDA-MB-435): 63.3 nM
TGI (MDA-MB-435): 901 nM
GI50 (MOLT-4 leukemia): 20.2 nM
GI50 (NCI-H226 lung): 11.3 nM
TGI (NCI-H226 lung): 108 nM
GI50 (NCI-H23 lung): 95.1 nM
TGI (NCI-H23 lung): 1120 nM
GI50 (NCI-H460 lung): 848 nM
TGI (NCI-H460 lung): 6.61 µM
GI50 (NCI-H522 lung): < 10 nM
TGI (NCI-H522 lung): 153 nM
GI50 (NCI/ADR-RES ovarian): 1370 nM
TGI (NCI/ADR-RES ovarian): > 43.7 µM
GI50 (OVCAR-3 ovarian): 78.5 nM
TGI (OVCAR-3 ovarian): 369 nM
GI50 (OVCAR-4 ovarian): 342 nM
TGI (OVCAR-4 ovarian): 17.7 µM
GI50 (OVCAR-5 ovarian): 270 nM
TGI (OVCAR-5 ovarian): 2240 nM
GI50 (OVCAR-8 ovarian): 32.7 nM
TGI (OVCAR-8 ovarian): 1480 nM
GI50 (PC-3 prostate): 206 nM
TGI (PC-3 prostate): 7.06 µM
GI50 (RPMI-8226 leukemia): 2220 nM
TGI (RPMI-8226 leukemia): 25.2 µM
GI50 (RXF 393 renal): 114 nM
TGI (RXF 393 renal): 877 nM
GI50 (SF-268 CNS): 18.9 nM
TGI (SF-268 CNS): 586 nM
GI50 (SF-295 CNS): 129 nM
TGI (SF-295 CNS): 673 nM
GI50 (SF-539 CNS): < 10 nM
TGI (SF-539 CNS): 35.9 nM
GI50 (SK-MEL-2 melanoma): 234 nM
TGI (SK-MEL-2 melanoma): 856 nM
GI50 (SK-MEL-28 melanoma): 156 nM
TGI (SK-MEL-28 melanoma): 8.49 µM
GI50 (SK-MEL-5 melanoma): 13.3 nM
TGI (SK-MEL-5 melanoma): 60.8 nM
GI50 (SK-OV-3 ovarian): 87.6 nM
TGI (SK-OV-3 ovarian): 2220 nM
GI50 (SN12C renal): < 18.7 nM
TGI (SN12C renal): 111 nM
GI50 (SNB-19 CNS): 27.7 nM
TGI (SNB-19 CNS): 6.64 µM
GI50 (SNB-75 CNS): 158 nM
TGI (SNB-75 CNS): 3.85 µM
GI50 (SW-620 colon): < 10 nM
TGI (SW-620 colon): 616 nM
GI50 (T-47D breast): < 12.6 nM
TGI (T-47D breast): 117 nM
GI50 (TK-10 renal): 143 nM
TGI (TK-10 renal): 548 nM
GI50 (U251 CNS): < 10 nM
TGI (U251 CNS): 141 nM
GI50 (UACC-257 melanoma): 103 nM
GI50 (UACC-62 melanoma): 16.9 nM
TGI (UACC-62 melanoma): 90.2 nM
GI50 (UO-31 renal): 173 nM
TGI (UO-31 renal): 676 nM
